Source: patent publication US20250255304A1, “HIGHLY TRA[…] CONTROLLING COMPOSITION” (ZM Crop Protection Corporation, priority 2022, published 2025)

Assays:
Type in all cases: in vivo
[1] = tested on: Coptotermes formosanus Shiraki; assay: Test Example 1: effect of agent on gypsum treated with test agent solution; conditions: dicloromezotiaz 0.023%, imidacloprid 0.1%, fipronil 0.03% test agent solution on gypsum
Procedure: A test agent solution containing 0.023 parts of dicloromezotiaz was prepared by adding 99.875 parts of water to 0.125 parts of the aqueous suspension composition shown in Formulation Example 1.
In a comparative example, an aqueous suspension composition prepared by adding an agent solution, wherein 99 parts of water was added to 1 part of a flowable containing 10.0 parts of imidacloprid and which contained 0.1 parts of imidacloprid and a drug solution, wherein 299 parts of water was added to 1 part of a flowable containing 9.1 parts of fipronil and which contained 0.03 parts of fipronil, uniformly mixing same was used as a test agent solution of a comparative example.
As the imidacloprid formulation and the fipronil formulation, commercially available termite controlling agents were used and diluted solutions at practical agent concentrations thereof were used as test agent solutions.
Gypsum was cured and spread in a glass petri dish having a diameter of 90 mm, 15 ml of each of the test agent solution of the example and the test agent solution of the comparative example was uniformly dropped on the entire surface of the gypsum. Thereafter, ten workers of Coptotermes formosanus Shiraki were released into the petri dish and the petri dish was covered and left to stand in a thermostatic chamber (25° C./relative humidity 60%).
The number of abnormal termites and the number of dead termites among the released termites (Coptotermes formosanus Shiraki) were observed every one hour from immediately after the release of the termites (Coptotermes formosanus Shiraki) until ten hours passed and the total number of the abnormal termite rate and the dead termite rate was calculated as the abnormal or dead termite rate (%) according to [Expression 1] below and the rates of expression of the effects of the respective agents were compared. Each test agent was prepared in one petri dish as one plot and the test was carried out in two replicates.

[2] = tested on: Coptotermes formosanus Shiraki; assay: Test Example 2: primary transmission treatment effect; conditions: Table 3, dicloromezotiaz 0.023%, fipronil 0.03%, imidacloprid 0.10%, chlorantraniliprole 0.05% solution in soil
Procedure: (§1) A test agent solution containing 0.023 parts of dicloromezotiaz was prepared by adding 99.875 parts of water to 0.125 parts of the aqueous suspension composition shown in Formulation Example 1. As comparative examples, four types of commercially available neonicotinoid termite controlling agents and four types of slow-acting termite controlling agents shown in Table 2 were diluted with water at practical concentrations to prepare test agent solutions. The “agent concentration (%)” indicates the concentration of the active ingredient contained in each of the composition of the present invention and the termite controlling agents and the “test agent solution concentration (%)” indicates the concentration of the active ingredient in each of the prepared test agent solutions.
(§2) After 1.2 g of each of the test agent solutions of the example and the comparative examples diluted to a predetermined concentration and prepared was added to 4.8 g of soil, 6 g of the mixed soil was spread in a glass petri dish having a diameter of 50 mm and ten workers of Coptotermes formosanus Shiraki were released into the petri dish and exposed to the agent solution for 4 hours.

[3] = tested on: Coptotermes formosanus Shiraki; assay: Test Example 2: secondary transmission treatment effect; conditions: Table 5, dicloromezotiaz 0.023%, fipronil 0.03%, imidacloprid 0.10%, chlorantraniliprole 0.05% solution in soil
Procedure: as §1, §2

[4] = tested on: Coptotermes formosanus Shiraki; assay: Test Example 3: extirpation test with dust formulation using simulated termite trails; conditions: active ingredient concentration 0.5%

## N#Cc1nn(-c2c(Cl)cc(C(F)(F)F)cc2Cl)c(N)c1[S+]([O-])C(F)(F)F (stereo not shown) [Fipronil]
[1]; time elapsed 1 h
  Abnormal or dead termite rate (%): 18%
[1]; time elapsed 2 h
  Abnormal or dead termite rate (%): 36%
[1]; time elapsed 3 h
  Abnormal or dead termite rate (%): 52%
[1]; time elapsed 4 h
  Abnormal or dead termite rate (%): 100%
[1]; time elapsed 5 h
  Abnormal or dead termite rate (%): 100%
[1]; time elapsed 6 h
  Abnormal or dead termite rate (%): 100%
[1]; time elapsed 7 h
  Abnormal or dead termite rate (%): 100%
[1]; time elapsed 8 h
  Abnormal or dead termite rate (%): 100%
[1]; time elapsed 9 h
  Abnormal or dead termite rate (%): 100%
[1]; time elapsed 10 h
  Abnormal or dead termite rate (%): 100%
[2]; after 1 day
  Abnormal or dead termite rate (%): 82%
[2]; after 3 days
  Abnormal or dead termite rate (%): 95%
[2]; after 7 days
  Abnormal or dead termite rate (%): 100%
[2]; after 14 days
  Abnormal or dead termite rate (%): 100%
[2]; after 21 days
  Abnormal or dead termite rate (%): 100%
[3]; after 1 day
  Abnormal or dead termite rate (%): 0%
[3]; after 3 days
  Abnormal or dead termite rate (%): 0%
[3]; after 7 days
  Abnormal or dead termite rate (%): 19%
[3]; after 14 days
  Abnormal or dead termite rate (%): 30%
[3]; after 21 days
  Abnormal or dead termite rate (%): 31%
[4]; 1 h
  Abnormal or dead termite rate (%): 0%
[4]; 2 h
  Abnormal or dead termite rate (%): 5%
[4]; 3 h
  Abnormal or dead termite rate (%): 50%
[4]; 4 h
  Abnormal or dead termite rate (%): 95%
[4]; 5 h
  Abnormal or dead termite rate (%): 95%
[4]; 6 h
  Abnormal or dead termite rate (%): 100%
[4]; 7 h
  Abnormal or dead termite rate (%): 100%
[4]; 1 day
  Abnormal or dead termite rate (%): 100%
[4]; 2 days
  Abnormal or dead termite rate (%): 100%
[4]; 3 days
  Abnormal or dead termite rate (%): 100%
[4]; 7 days
  Abnormal or dead termite rate (%): 100%
